{"source": "patent US9695155B2", "about": "“Herbicidal substituted pyrimidinyloxy benzene compounds” (E. I. DU PONT DE NEMOURS AND COMPANY, priority 2013, dated 2017)", "key": {"wheat, winter": {"system": "wheat, winter", "assay": "Test C preemergence", "type": "in vivo, Triticum aestivum", "conditions": "for Wheat plant response rating: preemergence", "in_short": "(§1)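 Visual ratings on a 0–100 scale (100 = complete control) were made versus untreated controls after 13–15 greenhouse days. Chemicals in a surfactant-containing non-phytotoxic solvent were applied either preemergence to seeds in loam–sand soil or postemergence to 1- to 4-leaf plants 2–18 cm tall.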"}, "galium [1]": {"system": "galium", "assay": "Test A postemergence", "type": "in vivo, Galium aparine", "conditions": "0 to 100 scale where 0 is no effect and 100 is complete control", "in_short": "(§2)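 Visual 0–100 rating (100 = complete control) taken about 10 d post-treatment relative to untreated checks. Preemergence: directed soil spray on sown loam/sand pots. Postemergence: seedlings 2–10 cm, 1–2 leaf. Non-phytotoxic solvent formulation with surfactant.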"}, "oilseed rape": {"system": "oilseed rape", "assay": "Test C preemergence", "type": "in vivo, Brassica napus", "conditions": "for Oilseed Rape plant response rating: preemergence", "in_short": "as §1"}, "barnyardgrass": {"system": "barnyardgrass", "assay": "Test C preemergence", "type": "in vivo, Echinochloa crus-galli", "conditions": "for Barnyardgrass plant response rating: preemergence", "in_short": "as §1"}, "kochia [2]": {"system": "kochia", "assay": "Test A preemergence", "type": "in vivo, Kochia scoparia", "in_short": "as §2"}, "giant foxtail": {"system": "giant foxtail", "assay": "Test C preemergence", "type": "in vivo, Setaria faberii", "conditions": "for Foxtail, Giant plant response rating: preemergence", "in_short": "as §1"}, "pigweed": {"system": "pigweed", "assay": "Test C preemergence", "type": "in vivo, Amaranthus retroflexus", "conditions": "for Pigweed plant response rating: preemergence", "in_short": "as §1"}, "soybean": {"system": "soybean", "assay": "Test C preemergence", "type": "in vivo, Glycine max", "conditions": "for Soybean plant response rating: preemergence", "in_short": "as §1"}, "lambsquarters": {"system": "lambsquarters", "assay": "Test C preemergence", "type": "in vivo, Chenopodium album", "conditions": "for Lambsquarters plant response rating: preemergence", "in_short": "as §1"}, "waterhemp": {"system": "waterhemp", "assay": "Test C preemergence", "type": "in vivo, Amaranthus rudis", "conditions": "for Waterhemp plant response rating: preemergence", "in_short": "as §1"}, "ragweed": {"system": "ragweed", "assay": "Test C preemergence", "type": "in vivo, Ambrosia elatior", "conditions": "for Ragweed plant response rating: preemergence", "in_short": "as §1"}, "velvetleaf": {"system": "velvetleaf", "assay": "Test C preemergence", "type": "in vivo, Abutilon theophrasti", "conditions": "for Velvetleaf plant response rating: preemergence", "in_short": "as §1"}, "yellow nutsedge": {"system": "yellow nutsedge", "assay": "Test C preemergence", "type": "in vivo, Cyperus esculentus", "conditions": "for Nutsedge, Yellow plant response rating: preemergence", "in_short": "as §1"}, "Italian ryegrass": {"system": "Italian ryegrass", "assay": "Test A preemergence", "type": "in vivo, Lolium multiflorum", "in_short": "as §2"}, "galium [3]": {"system": "galium", "assay": "Test C preemergence", "type": "in vivo, Galium aparine", "conditions": "for Galium plant response rating: preemergence", "in_short": "as §1"}, "blackgrass": {"system": "blackgrass", "assay": "Test C preemergence", "type": "in vivo, Alopecurus myosuroides", "conditions": "for Blackgrass plant response rating: preemergence", "in_short": "as §1"}, "kochia [4]": {"system": "kochia", "assay": "Test A postemergence", "type": "in vivo, Kochia scoparia", "conditions": "0 to 100 scale where 0 is no effect and 100 is complete control", "in_short": "as §2"}, "johnsongrass": {"system": "johnsongrass", "assay": "Test C preemergence", "type": "in vivo, Sorghum halepense", "conditions": "for Johnsongrass plant response rating: preemergence", "in_short": "as §1"}, "[5]": {"conditions": "16 g ai/ha, scale 0 to 100 (0 no effect, 100 complete control)"}, "[6]": {"conditions": "62 g ai/ha, scale 0 (no effect) to 100 (complete control)"}, "[7]": {"conditions": "125 g ai/ha, scale 0 (no effect) to 100 (complete control)"}, "[8]": {"conditions": "Preemergence, 31 g ai/ha, scale 0 to 100, 0 no effect, 100 complete control"}, "[9]": {"conditions": "125 g ai/ha, 0 to 100 scale where 0 is no effect and 100 is complete control"}, "[10]": {"conditions": "500 g ai/ha, 0 to 100 scale, 0 no effect, 100 complete control, approx. 10 days"}}}
{"molecule": "CC(C)c1cnn(-c2c(C#N)cccc2Oc2ncc(Cl)cn2)c1", "note": "[Compound 85]", "values": [{"measurement": "Wheat plant response rating", "setting": "wheat, winter; [5]", "value": 0}, {"measurement": "Wheat plant response rating", "setting": "wheat, winter; [6]", "value": 0}, {"measurement": "Wheat plant response rating", "setting": "wheat, winter; [7]", "value": 5}, {"measurement": "Plant response rating, Wheat", "setting": "wheat, winter; [8]", "value": 0}, {"measurement": "Plant response rating, Galium", "setting": "galium [1]; 125 g ai/ha", "value": 90}, {"measurement": "Plant response rating, Galium", "setting": "galium [1]; 500 g ai/ha", "value": 100}, {"measurement": "Oilseed Rape plant response rating", "setting": "oilseed rape; [5]", "value": 0}, {"measurement": "Oilseed Rape plant response rating", "setting": "oilseed rape; [6]", "value": 90}, {"measurement": "Oilseed Rape plant response rating", "setting": "oilseed rape; [7]", "value": 98}, {"measurement": "Plant response rating, Oilseed Rape", "setting": "oilseed rape; [8]", "value": 40}, {"measurement": "Barnyardgrass plant response rating", "setting": "barnyardgrass; [5]", "value": 0}, {"measurement": "Barnyardgrass plant response rating", "setting": "barnyardgrass; [6]", "value": 75}, {"measurement": "Barnyardgrass plant response rating", "setting": "barnyardgrass; [7]", "value": 95}, {"measurement": "Plant response rating, Barnyardgrass", "setting": "barnyardgrass; [8]", "value": 15}, {"measurement": "Plant response rating, Kochia", "setting": "kochia [2]; [9]", "value": 80}, {"measurement": "Kochia plant response rating", "setting": "kochia [2]; [10]", "value": 100}, {"measurement": "Foxtail, Giant plant response rating", "setting": "giant foxtail; [5]", "value": 20}, {"measurement": "Foxtail, Giant plant response rating", "setting": "giant foxtail; [6]", "value": 90}, {"measurement": "Foxtail, Giant plant response rating", "setting": "giant foxtail; [7]", "value": 100}, {"measurement": "Plant response rating, Foxtail, Giant", "setting": "giant foxtail; [8]", "value": 35}, {"measurement": "Pigweed plant response rating", "setting": "pigweed; [5]", "value": 50}, {"measurement": "Pigweed plant response rating", "setting": "pigweed; [6]", "value": 100}, {"measurement": "Pigweed plant response rating", "setting": "pigweed; [7]", "value": 100}, {"measurement": "Plant response rating, Pigweed", "setting": "pigweed; [8]", "value": 40}, {"measurement": "Soybean plant response rating", "setting": "soybean; [5]", "value": 0}, {"measurement": "Soybean plant response rating", "setting": "soybean; [6]", "value": 40}, {"measurement": "Soybean plant response rating", "setting": "soybean; [7]", "value": 60}, {"measurement": "Plant response rating, Soybean", "setting": "soybean; [8]", "value": 15}, {"measurement": "Lambsquarters plant response rating", "setting": "lambsquarters; [5]", "value": 65}, {"measurement": "Lambsquarters plant response rating", "setting": "lambsquarters; [6]", "value": 100}, {"measurement": "Lambsquarters plant response rating", "setting": "lambsquarters; [7]", "value": 100}, {"measurement": "Plant response rating, Lambsquarters", "setting": "lambsquarters; [8]", "value": 100}, {"measurement": "Waterhemp plant response rating", "setting": "waterhemp; [5]", "value": 55}, {"measurement": "Waterhemp plant response rating", "setting": "waterhemp; [6]", "value": 100}, {"measurement": "Waterhemp plant response rating", "setting": "waterhemp; [7]", "value": 100}, {"measurement": "Plant response rating, Waterhemp", "setting": "waterhemp; [8]", "value": 85}, {"measurement": "Ragweed plant response rating", "setting": "ragweed; [5]", "value": 0}, {"measurement": "Ragweed plant response rating", "setting": "ragweed; [6]", "value": 50}, {"measurement": "Ragweed plant response rating", "setting": "ragweed; [7]", "value": 65}, {"measurement": "Plant response rating, Ragweed", "setting": "ragweed; [8]", "value": 0}, {"measurement": "Velvetleaf plant response rating", "setting": "velvetleaf; [5]", "value": 35}, {"measurement": "Velvetleaf plant response rating", "setting": "velvetleaf; [6]", "value": 100}, {"measurement": "Velvetleaf plant response rating", "setting": "velvetleaf; [7]", "value": 100}, {"measurement": "Plant response rating, Velvetleaf", "setting": "velvetleaf; [8]", "value": 80}, {"measurement": "Nutsedge, Yellow plant response rating", "setting": "yellow nutsedge; [5]", "value": 0}, {"measurement": "Nutsedge, Yellow plant response rating", "setting": "yellow nutsedge; [6]", "value": 5}, {"measurement": "Nutsedge, Yellow plant response rating", "setting": "yellow nutsedge; [7]", "value": 20}, {"measurement": "Plant response rating, Nutsedge, Yellow", "setting": "yellow nutsedge; [8]", "value": 0}, {"measurement": "Plant response rating, Ryegrass, Italian", "setting": "Italian ryegrass; [9]", "value": 0}, {"measurement": "Ryegrass, Italian plant response rating", "setting": "Italian ryegrass; [10]", "value": 40}, {"measurement": "Galium plant response rating", "setting": "galium [3]; [5]", "value": 0}, {"measurement": "Galium plant response rating", "setting": "galium [3]; [6]", "value": 50}, {"measurement": "Galium plant response rating", "setting": "galium [3]; [7]", "value": 85}, {"measurement": "Plant response rating, Galium", "setting": "galium [3]; [8]", "value": 0}, {"measurement": "Blackgrass plant response rating", "setting": "blackgrass; [5]", "value": 0}, {"measurement": "Blackgrass plant response rating", "setting": "blackgrass; [6]", "value": 10}, {"measurement": "Blackgrass plant response rating", "setting": "blackgrass; [7]", "value": 90}, {"measurement": "Plant response rating, Blackgrass", "setting": "blackgrass; [8]", "value": 5}, {"measurement": "Plant response rating, Kochia", "setting": "kochia [4]; 125 g ai/ha", "value": 70}, {"measurement": "Plant response rating, Kochia", "setting": "kochia [4]; 500 g ai/ha", "value": 100}, {"measurement": "Johnsongrass plant response rating", "setting": "johnsongrass; [5]", "value": 15}, {"measurement": "Johnsongrass plant response rating", "setting": "johnsongrass; [6]", "value": 55}, {"measurement": "Johnsongrass plant response rating", "setting": "johnsongrass; [7]", "value": 85}, {"measurement": "Plant response rating, Johnsongrass", "setting": "johnsongrass; [8]", "value": 20}]}
